Test: gradient 5% acetonitrile 3 min, to 50% in 2 min, to 85% in 15 min, held 3 min, 100 µL/min
Details: column: Zorbax Extend-C18 2.1 x 50 mm; eluents: water / acetonitrile, 0.1% formic acid
How it was run: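 Data were gathered over 3 months by HPLC coupled to a quadrupole time-of-flight mass spectrometer, operated in positive and negative ionization mode. Mixtures of ~100 pure standards ran on a Zorbax Extend-C18 column (2.1 × 50 mm, 1.8 μm) at 100 μL/min, with water and acetonitrile each containing 0.1% formic acid and dead and dwell volumes of 40 μL and 900 μL. Retention time was read from adduct peaks picked by computer and checked manually.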

| RP-LC retention time [s] | SMILES |
| --- | --- |
| 1030 | CCC(=O)N1CCc2sc(S(=O)(=O)N3CCN(c4ccccc4C)CC3)cc2C1 |
| 730 | CCc1cccc(NC(=O)Nc2ccc3nnc(C)n3c2)c1 |
| 818 | COc1ccc(OC)c(NC(=O)c2c(C)oc3nc(C)nc(N4CCOCC4)c23)c1 |
| 711 | O=C(c1ccc(-c2cccs2)nc1)N1CCN(C2CCCCC2)CC1 |
| 1060 | COc1cccc(-c2noc(CN3C(=O)C(C)Oc4ccccc43)n2)c1 (stereo not given) |
| 666 | CCN1CCN(C(=O)C2CCN(c3nc4ccc(-c5ccsc5)nc4s3)CC2)CC1 |
| 668 | Cc1ccc2oc(-c3nnc(C(=O)NCCCN4CCOCC4)o3)c(C)c2c1 |
| 586 | CC(C)NCC(O)COc1ccc(Br)cc1Br (stereo not given) |
| 712 | CCc1ccc(NC(=O)c2c(C)oc3c2C2=NC(CC)CN2C=N3)cc1 (stereo not given) |
| 735 | O=C(Cc1ccc(F)cc1)N1CCCCC1c1nncn1CC1CC1 (stereo not given) |
| 938 | CCOc1ccccc1-n1ccn(Cc2nc(-c3ccc(Cl)cc3)no2)c(=O)c1=O |
| 609 | c1ccc(-c2nc(CC3CCCNC3)no2)cc1 (stereo not given) |
| 1270 | Cc1ccc(-c2nc(NC(=O)CCCOc3ccccc3C)sc2C)cc1 |
| 878 | CCCC1CCC(C(=O)Nc2ccc3nc(N4CCN(c5ncccn5)CC4)cc(C)c3c2)CC1 (stereo not given) |
| 796 | COc1ccc2c(CCNC(=O)CCc3ccccc3)c[nH]c2c1 |
| 678 | O=C(NCC1CC1)C1CCN(c2ncnc3c2oc2ccccc23)CC1 |
| 775 | CCOc1cc(C(=O)Nc2c(-c3ccccc3)nc3cc(C)ccn23)cc(OCC)c1OCC |
| 1080 | Cc1ccc(-n2ccc(=O)c(-c3nc(-c4ccc(F)c(Br)c4)no3)n2)cc1 |
| 866 | CC1CCN(C(=O)c2nnc(-c3ccc(S(=O)(=O)N4CCOCC4)cc3)o2)CC1 |
| 737 | O=C(NCCC1CCN(C(=O)Nc2cc(F)ccc2F)CC1)c1ccsc1 |
| 1090 | CC1CCCN(c2nn(CC(=O)Nc3ccc(F)cc3)c(=O)c3ccccc23)C1 (stereo not given) |
| 1010 | CSc1cccc(NC(=O)C2CCCN(C(=O)c3cc(C)cc(C)c3)C2)c1 (stereo not given) |

| RP-LC retention time [s] | SMILES |
| --- | --- |
| 916 | COc1cc(OC)c(NC(=O)N2CCCC(C)(C(=O)NCc3ccc(F)cc3)C2)cc1Cl (stereo not given) |
| 1120 | CC1CCN(c2nn(CC(=O)Nc3ccc(F)cc3)c(=O)c3ccccc23)CC1 |
| 954 | CCc1ccccc1NS(=O)(=O)c1ccc(CN2C(=O)c3ccccc3C2=O)cc1 |
| 880 | Cc1ccc(CNC(=O)Cn2cnc3c(sc4nc(-c5ccccc5)ccc43)c2=O)cc1 |
| 756 | O=C(NCc1csc(C2CCCN(C(=O)c3ccc(F)cc3Cl)C2)n1)C1CC1 (stereo not given) |
| 586 | CCc1noc(COC2CCCN(C(=O)Cn3ccnc3)C2)n1 (stereo not given) |
| 891 | Cc1oc2ccn(Cc3cccc(F)c3)c(=O)c2c1C(=O)NCC1CCCO1 (stereo not given) |
| 700 | COc1ccc(NC(=O)C2CCN(c3nnc4cccc(C)n34)CC2)cc1Cl |
| 627 | Cc1cc(C)cc(NC(=O)N2CCN(CCn3c(-c4ccncc4)nc4cccnc43)CC2)c1 |
| 660 | O=C(CSc1ccc(N2CCCC(C(=O)NC3CC3)C2)nn1)Nc1cc(F)ccc1Cl (stereo not given) |
| 600 | O=C(NCCOc1ccc(-c2ccccc2)nn1)c1ccc(=O)[nH]n1 |
| 632 | CC(=O)N1CCN(c2nc3c(s2)CC(C(=O)Nc2cccc4c2CCCC4)CC3)CC1 (stereo not given) |
| 914 | CCc1nc2c(NC(=O)c3ccc(Br)cc3)cccn2n1 |
| 720 | N#Cc1cccc(C(=O)N2CCCn3nc(-c4cccs4)cc3C2)c1 |
| 585 | Cc1ccc2cc(CN3C[C@@H](CO)[C@H](c4ccccn4)C3)c(=O)[nH]c2c1 |
| 766 | O=C(c1ccsc1)N1CCCC(OCc2nc(C3CC3)no2)C1 (stereo not given) |
| 801 | COc1ccc(N2CCN(C(=O)c3ccc4c(c3)CC(=O)N4C)CC2)cc1 |
| 801 | CCn1c(=O)oc2cc(-c3noc(CNC(=O)c4ccccc4)n3)ccc21 |
| 966 | COc1ccc(-c2noc(-c3nc(-c4ccccn4)no3)n2)cc1 |
| 994 | CC(C)Cn1cc(S(=O)(=O)Nc2cc(F)cc(F)c2)c2cccnc21 |
| 725 | CCOC(=O)CNC(=O)N1CCC(N2CCN(Cc3cccc(C)c3)C2=O)CC1 |
| 701 | CCSc1nnc(NC(=O)Cn2c(-c3cnccn3)nc3ccccc32)s1 |

| RP-LC retention time [s] | SMILES |
| --- | --- |
| 830 | O=C(c1ccoc1)N1CCC(N2CCc3ccccc32)CC1 |
| 616 | O=C(c1ccsc1)N1CCCN(c2cc(-c3ccc4c(c3)OCO4)[nH]n2)CC1 |
| 840 | COc1ccc(C(=O)NCc2cccnc2OC)c(OC)n1 |
| 1230 | COc1cccc(NC(=O)Cc2c(C)nn(-c3nc(-c4ccc(Cl)cc4)cs3)c2C)c1 |
| 761 | CCC(CO)Nc1ncnc2c1cnn2-c1ccc(C)c(Cl)c1 (stereo not given) |
| 607 | CN(Cc1nc2cc(C(=O)N3CCCC3)ccc2n1C)C(=O)Nc1ccc(F)cc1F |
| 802 | Cc1ccc(-c2[nH]ncc2CNS(=O)(=O)c2cccc3nsnc23)cc1C |
| 831 | CC(C)(C)C(=O)N1CCOC(c2ccccc2)C1 (stereo not given) |
| 614 | Cc1ccc(CN2CCN(CC(=O)NC3CCN(Cc4ccccc4)CC3)C(=O)C2=O)cc1 |
| 801 | COc1ccc(Cl)cc1NC(=O)c1c(OC)cc(=O)n2c1CCCC2 |
| 1060 | CCOC(=O)c1cc(S(=O)(=O)N2CCCC2C(=O)Nc2cccc3c2CCCC3)cn1C (stereo not given) |
| 822 | CCCCOc1ccc(-c2cc3c(N4CCN(c5ccccn5)CC4)nccn3n2)cc1 |
| 636 | O=C(C1CCCC1)N1CCCC(c2nn[nH]n2)C1 (stereo not given) |
| 669 | O=C(c1ccc2c(=O)n(-c3ccccc3)c(N3CCCCC3)nc2c1)N1CCN(c2ccccn2)CC1 |
| 682 | COc1ccccc1OCCNC(=O)C1CC(=O)N(c2n[nH]c3ccccc23)C1 (stereo not given) |
| 662 | CCOC(=O)c1ccc(NC(=O)Cn2cnc3cc4c(cc32)OCCO4)cc1 |
| 827 | CSc1ncccc1C(=O)N1CCCn2nc(-c3cccc(Cl)c3)cc2C1 |
| 829 | CCc1ccc(N2CC(c3noc(-c4ccccn4)n3)CC2=O)cc1 (stereo not given) |
| 730 | Cc1oc(-c2[nH]ncc2C(=O)N2CCCCC2)cc1S(=O)(=O)Nc1ccccc1 |
| 674 | CN1CCN(C(=O)C2CCN(c3nc4ccc(-c5ccc(F)cc5)nc4s3)CC2)CC1 |
| 616 | O=C(c1ccc2c(c1)nnn2CCN1CCOCC1)N1CCN(c2ccccc2)CC1 |
| 589 | CC1(O)CCOC2(CCN(Cc3cccc4[nH]ccc34)CC2)C1 (stereo not given) |

| RP-LC retention time [s] | SMILES |
| --- | --- |
| 968 | Cc1cccc(N2CCN(C(=O)CCC(=O)N3CCCn4nc(-c5cccn5C)cc43)CC2)c1C |
| 653 | Cc1cc(C)cc(C(=O)N2CCN(c3nc(C)cc(N4CCOCC4)n3)CC2)c1 |
| 701 | Cc1ccc(CNc2nc3ccncc3n(C(C)C)c2=O)cc1 |
| 564 | Cc1nn(C)c(C)c1CCC(=O)N1CCN(c2ncccn2)CC1 |
| 888 | COc1ccc(-c2noc(C3CC(=O)N(c4ccc(C)cc4)C3)n2)c(OC)c1 (stereo not given) |
| 774 | CCNC(=O)N1CCCC(c2cccc(C(=O)NCc3ccc(C)o3)c2)C1 (stereo not given) |
| 899 | O=C(Cn1cccc1-c1nc(-c2ccccc2)cs1)N1CCN(C(=O)c2ccco2)CC1 |
| 875 | COc1ccc(C2CCCN2C(=O)Cc2cccs2)cc1 (stereo not given) |
| 711 | Cc1cc(C)cc(NC(=O)NCC(c2cccnc2)c2cn(C)c3ccccc23)c1 (stereo not given) |
| 620 | CC(Oc1ccc(-c2cnc3ccccc3n2)cc1)C(=O)N(C)Cc1ccco1 (stereo not given) |
| 814 | COCCN1C(=O)c2ccc(-c3ccco3)n2CC1(C)C(=O)NCc1ccccc1 (stereo not given) |
| 984 | CCCCn1cc(S(=O)(=O)NCc2ccc(C)cc2)c2cccnc21 |
| 982 | Cc1cc(-c2nnc(-c3ccccc3)o2)c(C)n1CC(=O)NCc1ccc(Cl)cc1 |
| 1130 | Cc1ccc(S(=O)(=O)N2CCCCC2)cc1-c1nnc(-c2ccccc2)o1 |
| 778 | O=C(NCc1cc(F)cc(F)c1)C1CCc2nc(N3CCCCC3)ncc2C1 (stereo not given) |
| 780 | CCN1C(=O)CCc2cc(NC(=O)Cc3ccc(F)cc3)ccc21 |
| 869 | CCc1ccc(NC(=O)Nc2cccn3nc(C)nc23)cc1 |
| 725 | Cc1ccc(S(=O)(=O)N2CCCC(Cn3c(C)nc4cccnc43)C2)cc1F (stereo not given) |
| 662 | CCn1ccc(C(=O)N2CCC[C@H]2c2nc(-c3ccccc3)n[nH]2)n1 |
| 1030 | CCOC(=O)c1noc2ncnc(Nc3cc(C)ccc3C)c12 |
| 908 | Cc1nn(CC(=O)NCCc2c[nH]c3ccc(Cl)cc23)c(=O)c2c(C)n(-c3ccccc3)nc12 |

| SMILES | RP-LC retention time [s] |
| --- | --- |
| COCCN1CCC(N2CCCN(C(=O)Cc3c[nH]c4ccccc34)CC2)C1=O (stereo not given) | 576 |
| O=C(NCCc1ccccc1)c1c(O)c2sccc2n(Cc2ccccc2)c1=O | 1270 |
| CC(CCc1ccccc1)NC(C)C(O)c1ccc(O)cc1 (stereo not given) | 712 |

Reference: the METLIN SMRT retention time set (Domingo-Almenara et al. 2019)
